# Test results taken from paper PMC12560828, “Chemical structure drives developmental toxicity of alkyl-substituted naphthalenes in zebrafish” (Environment international, 2025).
# Legend:
# [1] = system: early life stage zebrafish (Danio rerio) embryos; experiment: Developmental toxicity morphology screen, sealed rotating vial exposure; format: in vivo; set-up: bmd, MO24 / bmd, MORT / bmd, ANY_ / bmd, AXIS / bmd, CRAN / bmd, EDEM / bmd, LTRK / bmd, MUSC / bmdL, ANY_ / bmdU, ANY_ / bmdL, AXIS / bmdU, AXIS / bmdL, CRAN / bmdU, CRAN / bmdL, EDEM / bmdU, EDEM / bmdL, LTRK / bmdU, LTRK / bmdL, MO24 / bmdU, MO24 / bmdL, MORT / bmdU, MORT: unit not given here
# Method: (§1) When embryos were 6 hpf they were bleached in groups of 1000 or less to limit bacterial growth in sealed vials. Embryos were placed in a strainer for transfer between solutions in 500 mL containers. […] Pools of eight embryos were placed into 2 mL clear glass screw cap exposure vials with polyvinyl-faced pulp liner (Avantar Radnor, PA, United States) using a glass Pasteur pipette. Excess EM was removed, and 2 mL of fresh EM was immediately added. A total of 10 uL of 200x working stock (in DMSO) was added to each vial, then immediately capped and inverted three times to mix. […] Vials were loaded into a custom 3D printed vial holder for slow end-over-end rotation in a dark 28 °C incubator overnight. […] At 24 hpf, embryos were removed from exposure vials and singulated into 96-well plates loaded with 100 μL chemical-free EM. Each exposure vial group was maintained in plate columns. After loading into 96-well plates, embryos were assessed for 24-hour mortality. For the remainder of the exposure, plates were kept stationary at 28 °C in the dark, until 120 hpf when morphology screening and the larval photo motor response (LPR) assay were conducted, section 2.3.2 and section 2.3.3, respectively.
# Each treatment group was replicated over four vials, resulting in 32 embryos per treatment, split over two replicate 96-well plates per chemical. […] All reported concentrations were nominal water concentrations and are included in SI-T4.
# At 24 hpf embryos were assessed for mortality (MO24). At 120 hpf embryos were assessed for abnormality in […] morphological endpoints: mortality (MORT), edemas (EDEM), bent axis (AXIS), touch response (TCHR), craniofacial (CRAN), muscular/cardiovascular (MUSC), lower trunk (LRTK), brain (BRAN), skin (SKIN), and notochord malformations (NC). Morphological assessments were made by a team of three to four individuals. The team was blinded to the identity, plate layout, and concentrations of the chemicals, thereby minimizing bias in morphological screening assessment. To ensure the assessments were consistent, concentration–response reproducibility of a parathion ethyl quality control plate was performed along with each experimental exposure set up. Details of all measured endpoints can be found at Developmental toxicity zebrafish phenotype atlas. […] Each endpoint was scored as a binary presence/absence and scores were compiled into an “Any effect” endpoint, the presence of abnormality in any individual endpoint.
# The Any effect percent was used to calculate the BMC50, 50 % change relative to the background for each endpoint and chemical. All values were reported as the nominal exposure concentration.
# [2] = system: zebrafish larvae, 120 hpf; experiment: Larval photomotor response (LPR) assay after vial exposure; format: in vivo, Danio rerio; details: for fold_change: LPR
# Method: as §1
# Each treatment group was replicated over four vials, resulting in 32 embryos per treatment, split over two replicate 96-well plates per chemical. […] Vial groups of plated larvae were tracked to assess the impact of the vial on the results. All reported concentrations were nominal water concentrations and are included in SI-T4.
# The LPR assay was conducted at 120 hpf. […] Larval movement was tracked throughout minutes 6–24. Animals dead or morphologically abnormal were excluded from the analysis, and if more than 30 % of the wells in a treatment group were excluded, the treatment was removed.
# Movement values were binned into 6s intervals, log normalized and used to calculate area under the curve (AUC). AUC values from the first cycle after calibration were used to calculate the LEL for each period (light and dark).
# [3] = period dark, round 1, conc 3.125
# [4] = period dark, round 1, conc 6.25
# [5] = period dark, round 1, conc 12.5
# [6] = period light, round 1, conc 3.125
# [7] = period light, round 1, conc 6.25
# [8] = period light, round 1, conc 12.5
# [9] = Fig. 2 heatmap; nominal concentration, exposure 6-24 hpf in vials, summary of all endpoints
# [10] = benchmark dose; morphology endpoint ANY_ (any effect)
# [11] = endpoint MORT; lower limit of benchmark dose
# [12] = endpoint MORT; upper limit of benchmark dose
# [13] = morphology endpoint EDEM; benchmark dose
# [14] = morphology endpoint EDEM; lower limit of benchmark dose
# [15] = morphology endpoint EDEM; upper limit of benchmark dose
smiles,measurement,setting,value
Cc1cccc2ccccc12 [1-methylnaphthalene],morphological effects (BMC50 for any morphological endpoint),"[1]; 0-50 μM, result in words",no morphological BMC50 values
same,LPR behavioral effect,"[2]; 120 hpf, light/dark periods, result in words",active
same,fold_change,[2]; [3],-0.2838
same,fold_change,[2]; [4],-0.4018
same,fold_change,[2]; [5],-0.5302
same,fold_change,"[2]; period dark, round 1, conc 25",-0.8382
same,fold_change,"[2]; period dark, round 1, conc 50",-0.8713
same,fold_change,[2]; [6],0.7433
same,fold_change,[2]; [7],0.645
same,fold_change,[2]; [8],0.113
same,fold_change,"[2]; period light, round 1, conc 25",0.4697
same,fold_change,"[2]; period light, round 1, conc 50",0.667
"Cc1cc2ccccc2cc1C [2,3-dimethylnaphthalene]",BMC50 Any effect,[1]; [9],46.6 µM
same,any effect BMD50,[1]; SI-T5,46.56 µM
same,"bmd, ANY_",[1]; [10],46.5587
same,fold_change,[2]; [3],-0.07813
same,fold_change,[2]; [4],-0.1051
same,fold_change,[2]; [5],-0.1104
same,fold_change,"[2]; period dark, round 1, conc 25",-0.9852
same,fold_change,"[2]; period dark, round 1, conc 50",-1.366
same,fold_change,[2]; [6],-0.3145
same,fold_change,[2]; [7],-0.003485
same,fold_change,[2]; [8],-1.16
same,fold_change,"[2]; period light, round 1, conc 25",-0.6826
same,fold_change,"[2]; period light, round 1, conc 50",-0.533
"CCc1ccc2cc(CC)ccc2c1 [2,6-diethylnaphthalene]",BMC50 AXIS (curved or bent body axis at 120 hpf),[1]; Fig. 2; nominal concentration,46.9 µM
same,BMC50 MO24 (mortality at 24 hpf),[1]; Fig. 2; nominal concentration,38.1 µM
same,BMC50 MORT (mortality at 120 hpf),[1]; Fig. 2; nominal concentration,39.2 µM
same,BMC50 Any effect,[1]; [9],18.8 µM
same,any effect BMD50,[1]; SI-T5,18.77 µM
same,"bmd, MO24",[1]; benchmark dose; endpoint MO24,38.0576
same,"bmd, MORT",[1]; benchmark dose; endpoint MORT,39.1942
same,"bmd, ANY_",[1]; [10],18.7673
same,"bmd, AXIS",[1]; benchmark dose; morphology endpoint AXIS,46.8649
same,fold_change,[2]; [3],0.178
same,fold_change,[2]; [4],-0.04909
same,fold_change,[2]; [5],-0.5724
same,fold_change,"[2]; period dark, round 1, conc 25",-0.5473
same,fold_change,[2]; [6],-0.07519
same,fold_change,[2]; [7],0.5876
same,fold_change,[2]; [8],0.2476
same,fold_change,"[2]; period light, round 1, conc 25",0.1223
"CC(C)(C)c1ccc2ccc(C(C)(C)C)cc2c1 [2,7-di-tert-butylnaphthalene]",BMC50 EDEM (pericardial and/or yolk sac edema at 120 hpf),[1]; Fig. 2; nominal concentration,33.6 µM
same,BMC50 MO24 (mortality at 24 hpf),[1]; Fig. 2; nominal concentration,no MO24 BMC50
same,BMC50 MORT (mortality at 120 hpf),[1]; Fig. 2; nominal concentration,41.3 µM
same,BMC50 Any effect,[1]; [9],24.7 µM
same,any effect BMD50,[1]; SI-T5,24.66 µM
same,"bmd, ANY_",[1]; [10],24.6598
same,"bmd, MORT",[1]; endpoint MORT; benchmark dose,41.3049
same,"bmdL, MORT",[1]; [11],34.7649
same,"bmdU, MORT",[1]; [12],51.9197
same,"bmd, EDEM",[1]; [13],33.6463
same,"bmdL, EDEM",[1]; [14],26.4386
same,"bmdU, EDEM",[1]; [15],67.8341
same,fold_change,[2]; [3],-0.2175
same,fold_change,[2]; [4],-0.4542
same,fold_change,[2]; [5],-0.5803
same,fold_change,"[2]; period dark, round 1, conc 25",-1.44
same,fold_change,[2]; [6],0.7527
same,fold_change,[2]; [7],0.7301
same,fold_change,[2]; [8],0.5841
same,fold_change,"[2]; period light, round 1, conc 25",0.3464
CCCCc1ccc2ccccc2c1 [2-butylnaphthalene],BMC50 AXIS (curved or bent body axis at 120 hpf),[1]; Fig. 2; nominal concentration,31.7 µM
same,BMC50 CRAN (craniofacial malformation at 120 hpf),[1]; Fig. 2; nominal concentration,32.3 µM
same,BMC50 EDEM (pericardial and/or yolk sac edema at 120 hpf),[1]; Fig. 2; nominal concentration,37.1 µM
same,BMC50 LTRK (lower trunk and/or caudal fin at 120 hpf),[1]; Fig. 2; nominal concentration,32.6 µM
same,BMC50 MO24 (mortality at 24 hpf),[1]; Fig. 2; nominal concentration,45.9 µM
same,BMC50 MORT (mortality at 120 hpf),[1]; Fig. 2; nominal concentration,29.2 µM
same,BMC50 Any effect,[1]; [9],13.8 µM
same,any effect BMD50,[1]; SI-T5,13.76 µM
same,"bmd, MO24",[1]; endpoint MO24; benchmark dose,45.9226
same,"bmdL, MO24",[1]; endpoint MO24; lower limit of benchmark dose,34.5575
same,"bmdU, MO24",[1]; endpoint MO24; upper limit of benchmark dose,71.8256
same,"bmd, MORT",[1]; endpoint MORT; benchmark dose,29.2083
same,"bmdL, MORT",[1]; [11],24.1073
same,"bmdU, MORT",[1]; [12],36.5916
same,"bmd, ANY_",[1]; morphology endpoint ANY_; benchmark dose,13.7563
same,"bmdL, ANY_",[1]; morphology endpoint ANY_; lower limit of benchmark dose,11.3562
same,"bmdU, ANY_",[1]; morphology endpoint ANY_; upper limit of benchmark dose,16.7056
same,"bmd, AXIS",[1]; morphology endpoint AXIS; benchmark dose,31.7332
same,"bmdL, AXIS",[1]; morphology endpoint AXIS; lower limit of benchmark dose,20.8074
same,"bmdU, AXIS",[1]; morphology endpoint AXIS; upper limit of benchmark dose,68.8189
same,"bmd, CRAN",[1]; morphology endpoint CRAN; benchmark dose,32.2639
same,"bmdL, CRAN",[1]; morphology endpoint CRAN; lower limit of benchmark dose,21.7357
same,"bmdU, CRAN",[1]; morphology endpoint CRAN; upper limit of benchmark dose,64.257
same,"bmd, EDEM",[1]; [13],37.0933
same,"bmdL, EDEM",[1]; [14],25.0511
same,"bmdU, EDEM",[1]; [15],73.9212
same,"bmd, LTRK",[1]; morphology endpoint LTRK; benchmark dose,32.6419
same,"bmdL, LTRK",[1]; morphology endpoint LTRK; lower limit of benchmark dose,22.6339
same,"bmdU, LTRK",[1]; morphology endpoint LTRK; upper limit of benchmark dose,59.8583
same,fold_change,[2]; [3],-0.7788
same,fold_change,[2]; [4],-1.395
same,fold_change,[2]; [5],-2.279
same,fold_change,[2]; [6],0.2651
same,fold_change,[2]; [7],-0.6707
same,fold_change,[2]; [8],0.432
Cc1ccc2ccccc2c1 [2-methylnaphthalene],morphological effects (BMC50 for any morphological endpoint),"[1]; 0-50 μM, result in words",no morphological BMC50 values
same,fold_change,[2]; [3],0.03896
same,fold_change,[2]; [4],-0.06284
same,fold_change,[2]; [5],0.2024
same,fold_change,"[2]; period dark, round 1, conc 25",0.07059
same,fold_change,"[2]; period dark, round 1, conc 50",-0.2156
same,fold_change,[2]; [6],-0.3603
same,fold_change,[2]; [7],-0.05115
same,fold_change,[2]; [8],0.6486
same,fold_change,"[2]; period light, round 1, conc 25",0.2057
same,fold_change,"[2]; period light, round 1, conc 50",0.2253
